Measurements published in the supplement of paper PMC10011410.
± gives the standard deviation of the averaged measurements.

Tests used:
U-2 OS [1] = assay: cell painting activity score (Mahalanobis distance from DMSO wells); higher = stronger morphological phenotype; settings: 24 h
Method in brief: (§1)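 Cell painting used U-2 OS cells at about 1,500 per well in 384-well plates, treated by pin tool for 24 h at 37 °C, usually at six 2-fold concentrations from 20 μM to 625 nM. Cells were stained with MitoTracker, concanavalin A, phalloidin, wheat germ agglutinin, Hoechst and SYTO 14 and imaged on an Opera Phenix. Features were extracted with CellProfiler and normalized to DMSO cells on the same plate. The activity score is the Mahalanobis distance from DMSO wells; cell count is relative to DMSO wells. Values are means of four replicate plates.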

U-2 OS [2] = assay: intracellular GSH:GSSG ratio (calculated); higher = more reduced glutathione pool; settings: 24 h
Procedure: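 Intracellular glutathione in U-2 OS cells after 24 h compound treatment at 5, 10 and 20 uM (some at 40 and 80 uM). Total glutathione and GSSG were measured with the GSH/GSSG-Glo kit, and the GSH:GSSG ratio was calculated. Mean of five technical replicate plates.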

U-2 OS [3] = assay: cell viability (CellTiter-Glo) relative to DMSO (% of control); higher = more viable; settings: 24 h
Method in brief: (§2)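 Viability was assessed with CellTiter-Glo, and total glutathione and GSSG with GSH/GSSG-Glo, on separate plates by luminescence. The U-2 OS cells, seeded at 750 per well in white low-volume 384-well plates, were exposed 24 h later to most compounds at 20, 10 and 5 μM in 0.4% DMSO for 24 h at 37 °C. Corrected values from five replicate plates are expressed relative to vehicle or as a GSH:GSSG ratio.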

U-2 OS [4] = assay: relative cell count vs DMSO (cell painting) (fraction of DMSO control); higher = more cells remaining (less cytotoxic); settings: 24 h
Method in brief: as §1

U-2 OS [5] = assay: total intracellular glutathione (GSH + GSSG) relative to DMSO (% of control); higher = more glutathione; settings: 24 h
Method in brief: as §2

U-2 OS [6] = assay: AUC of culture confluence over time (live-cell imaging) (AUC (confluence % x time)); higher = more confluent culture (less growth inhibition)
Method in brief: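 Using an Incucyte S3 with a 10x objective, confluence of U-2 OS cells was imaged every 4 h for up to 60 h at 37 °C. The cells had been seeded at 750 per well in 384-well plates in F-12K medium with 10% FBS and treated by pin tool 24 h later, most compounds at 20, 10 and 5 μM with 0.2% DMSO. The value given is the area under the confluence-versus-time curve.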

SMILES | cell painting activity score (U-2 OS [1]; 0.625 µM) | cell painting activity score (U-2 OS [1]; 1.25 µM) | cell painting activity score (U-2 OS [1]; 2.5 µM) | cell painting activity score (U-2 OS [1]; 5 µM) | cell painting activity score (U-2 OS [1]; 10 µM) | cell painting activity score (U-2 OS [1]; 20 µM) | intracellular GSH:GSSG ratio (U-2 OS [2]; 5 µM) | intracellular GSH:GSSG ratio (U-2 OS [2]; 10 µM) | intracellular GSH:GSSG ratio (U-2 OS [2]; 20 µM) | cell viability (U-2 OS [3]; 5 µM) | cell viability (U-2 OS [3]; 10 µM) | cell viability (U-2 OS [3]; 20 µM) | relative cell count (U-2 OS [4]; 0.625 µM) | relative cell count (U-2 OS [4]; 1.25 µM) | relative cell count (U-2 OS [4]; 2.5 µM) | relative cell count (U-2 OS [4]; 5 µM) | relative cell count (U-2 OS [4]; 10 µM) | relative cell count (U-2 OS [4]; 20 µM) | total intracellular glutathione (U-2 OS [5]; 5 µM) | total intracellular glutathione (U-2 OS [5]; 10 µM) | total intracellular glutathione (U-2 OS [5]; 20 µM) | AUC of culture confluence over time (U-2 OS [6]; 5 µM) | AUC of culture confluence over time (U-2 OS [6]; 10 µM) | AUC of culture confluence over time (U-2 OS [6]; 20 µM) | AUC of culture confluence over time (U-2 OS [6]; 0.625 µM) | AUC of culture confluence over time (U-2 OS [6]; 1.25 µM) | AUC of culture confluence over time (U-2 OS [6]; 2.5 µM)
C=CC(=O)N1CCC[C@@H](n2nc(-c3ccc(Oc4ccccc4)cc3)c3c(N)ncnc32)C1 | 5.26 | 6.98 | 6.19 | 8.03 | 8.01 | 12.2 | 21.3 | 20 | 13.5 | 87.8 ± 1.4 | 87.6 ± 4 | 82 ± 3.9 | 1.09 | 1.02 | 1.09 | 1.11 | 1.03 | 1.03 | 89.1 ± 3.4 | 94.8 ± 4.3 | 85.1 ± 9.8 | 37.7 | 27.5 | 20.6 |  |  | 
O=[N+]([O-])c1cc(Br)c2nsnc2c1Sc1ncnc2nc[nH]c12 | 5.04 | 8.02 | 7.08 | 16.2 | 17.9 | 17.8 | 9.74 | 2.76 | 4.35 | 29.6 ± 6.5 | 6.03 ± 3.7 | 0.936 ± 0.27 | 0.89 | 0.788 | 0.814 | 0.205 | 0.0623 | 0.0543 | 56.4 ± 8.3 | 34.6 ± 12 | 7.7 ± 3.1 | 12.5 | 14.1 | 18 |  |  | 
COc1cc2ncnc(Nc3ccc(F)c(Cl)c3)c2cc1NC(=O)/C=C/CN1CCCCC1 | 10.6 | 10.4 | 11.7 | 13.9 | 18.6 | 22.1 | 10.8 | 7.42 | 1.96 | 74.4 ± 5 | 59.5 ± 2.5 | 22.4 ± 5.3 | 0.624 | 0.681 | 0.586 | 0.503 | 0.331 | 0.035 | 81.2 ± 4.8 | 59.3 ± 3.2 | 18.3 ± 12 | 26.9 | 14.6 | 13.7 |  |  | 
O=C(Nc1nc(-c2ccccc2)ns1)c1cccs1 | 4.56 | 4.47 | 2.86 | 3.95 | 3.58 | 4.52 | 16.9 | 13 | 23.8 | 95.9 ± 3.4 | 93.5 ± 3.8 | 97.5 ± 1.8 | 0.94 | 0.902 | 0.915 | 0.929 | 0.917 | 0.914 | 99.8 ± 3.8 | 98.1 ± 5.4 | 103 ± 7.2 | 42.6 | 48.1 | 43.5 |  |  | 
CC1(C)CC[C@]2(C(=O)n3ccnc3)CC[C@]3(C)[C@H](C(=O)C=C4[C@@]5(C)C=C(C#N)C(=O)C(C)(C)[C@@H]5CC[C@]43C)[C@@H]2C1 | 17.6 | 23.5 | 35.7 | 33.9 | 32 | 26.6 | 3.45 | 4.45 | 0.635 | 43.9 ± 1.6 | 43.8 ± 5.2 | 94.4 ± 8.6 | 0.329 | 0.22 | 0.121 | 0.0924 | 0.0552 | 0.0644 | 36.9 ± 4.2 | 38 ± 6.2 | 38.6 ± 5.8 | 16 | 14.8 | 13.9 |  |  | 
CC(C)C[C@H](NC(=O)[C@H](Cc1ccccc1)NC(=O)c1cnccn1)B(O)O | 28.4 | 29.8 | 29.3 | 30.7 | 31 | 29.8 | 2.45 | 1.97 | 1.1 | 6.79 ± 0.82 | 7.67 ± 1.1 | 7.65 ± 1 | 0.186 | 0.172 | 0.149 | 0.129 | 0.131 | 0.125 | 6.2 ± 0.76 | 6.01 ± 0.4 | 6.63 ± 0.68 | 16.9 | 15.6 | 15.1 |  |  | 
CCOc1cc2ncc(C#N)c(Nc3ccc(OCc4ccccn4)c(Cl)c3)c2cc1NC(=O)/C=C/CN(C)C | 6.66 | 11.4 | 14.6 | 10.9 | 9.93 | 13.4 | 11.7 | 10.4 | 8.69 | 71.7 ± 4.9 | 71 ± 3.7 | 73.1 ± 7.3 | 0.995 | 0.842 | 0.811 | 0.76 | 0.778 | 0.757 | 58.3 ± 2.8 | 61.3 ± 2.5 | 59.5 ± 3.7 | 33.1 | 34.1 | 21.3 |  |  | 
c1ccc(-c2noc(NC3CCCC3)n2)cc1 | 2.72 | 2.85 | 2.97 | 3.02 | 2.62 | 3.1 | 28.5 | 30.3 | 26 | 95.5 ± 6.9 | 101 ± 8.9 | 97 ± 6.5 | 1.03 | 1.02 | 1.06 | 1.05 | 1.07 | 1.06 | 103 ± 5.1 | 103 ± 10 | 107 ± 7.1 | 44 | 42.5 | 44.2 |  |  | 
O=S1(=O)CCc2ccccc21 | 4.91 | 3.74 | 4.94 | 4.01 | 4.61 | 6.81 | 26 | 25.7 | 22.4 | 101 ± 3.4 | 101 ± 5.8 | 102 ± 2.9 | 1.03 | 0.988 | 1.02 | 1.05 | 1.02 | 1.02 | 104 ± 1.9 | 109 ± 7.8 | 106 ± 7.5 | 51 | 51.8 | 54.2 |  |  | 
O=S1(=O)C=Cc2ccccc21 | 7.06 | 8.41 | 10.4 | 10.2 | 13.2 | 13.2 | 19.9 | 14.6 | 13.5 | 102 ± 5 | 97.3 ± 2.8 | 103 ± 5.8 | 1.04 | 0.994 | 0.991 | 1.05 | 0.975 | 0.957 | 138 ± 4 | 132 ± 8.3 | 141 ± 7.7 | 53.2 | 50.3 | 36.8 |  |  | 
Cn1c(=O)n(-c2ccc(C(C)(C)C#N)cc2)c2c3cc(-c4cnc5ccccc5c4)ccc3ncc21 | 11.8 | 12.3 | 12.8 | 12.8 | 12.6 | 12.8 | 23.9 | 22.6 | 29.4 | 68.1 ± 3.9 | 62.4 ± 1.9 | 63.2 ± 3.4 | 0.853 | 0.819 | 0.802 | 0.83 | 0.788 | 0.765 | 71.3 ± 4.7 | 70.8 ± 2.6 | 68.2 ± 2.1 | 31.4 | 28.4 | 27.6 |  |  | 
COc1cc2c(c(OC)c1OC)-c1ccc(OC)c(=O)cc1[C@@H](NC(C)=O)CC2 | 22.4 ± 2.2 | 22 ± 1.8 | 20.7 ± 1.9 | 20.3 ± 2.4 | 21.3 ± 1.8 | 21 ± 1.7 | 3 | 2.46 | 2.47 | 49.1 ± 4 | 52.8 ± 6.9 | 57.8 ± 6.9 | 0.215 ± 0.03 | 0.215 ± 0.021 | 0.213 ± 0.02 | 0.209 ± 0.021 | 0.205 ± 0.017 | 0.197 ± 0.018 | 59.7 ± 3.7 | 58.1 ± 4.3 | 60.6 ± 3.2 | 20.1 | 19.7 | 22.8 ± 0.82 | 21.6 | 21.5 | 21
O=C(NNS(=O)(=O)c1ccccc1)c1cc(-c2ccnnc2)ccc1F | 4.47 | 4.16 | 3.77 | 3.67 | 4.24 | 4.38 | 23.9 | 21.4 | 23.2 | 95.6 ± 5.4 | 87.5 ± 7.7 | 88.5 ± 3.6 | 0.985 | 0.95 | 0.967 | 1.02 | 0.939 | 1.04 | 98 ± 3.1 | 94.3 ± 3 | 94.6 ± 4.8 | 49.6 | 50 | 49.6 |  |  | 
CC(C)[C@H](C(=O)Nc1ccc(C(=O)NO)cc1)c1ccccc1 | 16.9 | 20.2 | 19.4 | 17.6 | 13.3 | 15.9 | 6.7 | 7.56 |  | 44.2 ± 4.6 | 44 ± 1.6 | 44 ± 1.6 | 0.727 | 0.52 | 0.497 | 0.465 | 0.442 | 0.41 | 40.8 ± 2.6 | 40.5 ± 3.5 | 39.6 ± 4.1 | 18.7 | 20 | 18.2 |  |  | 
C=CC(=O)Nc1cc(Nc2nccc(-c3cn(C)c4ccccc34)n2)c(OC)cc1N(C)CCN(C)C | 10.5 | 8.95 | 9.22 | 9.78 | 13.8 | 17.8 | 22.9 | 12.3 | 7.29 | 75.6 ± 3.2 | 55 ± 4 | 35 ± 2.5 | 0.982 | 0.951 | 0.964 | 0.897 | 0.773 | 0.363 | 86.9 ± 3.4 | 77.4 ± 3.5 | 50.4 ± 3.9 | 39 | 28.4 | 7 |  |  | 
